Like-named read-outs stand apart in the source and are kept apart here.

The conditions of the data set: aqueous solution.

Description: In addition, an equilibrium constant of inclusion complex between epinephrine and sulfobutyl ether β-cyclodextrin (SBE-CD) in aqueous solution was determined using a spectroscopy technique, i.e., UV spectrophotometer as shown in FIG. 1. The equilibrium constant (K) between epinephrine and SBE-CD was determined by increasing the molar concentration ratio of SBD-CD to epinephrine in solution and measuring the spectral shift (ΔA) as shown FIG. 2 at pH 3.5. The K value was derived from the slope and intercept of a linear relationship from a plot between [Epi][SBD-CD]/ΔA and [SBD-CD] according to the Hildebrand and Benesi equation as shown in FIG. 2 (Rong Liu, Editor, Water-Insoluble Drug Formulation, Interpharm Press, 2000; and F. Cramer et. al., The Formation of Inclusion Compounds of a-Cyclodextrin in Aqueous Solutions, J. Am. Chem. Soc., 89, 14-20, 1967, the disclosures of which are incorporated herein by reference in their entireties).

Regarding `CNCC(O)c1ccc(O)c(O)c1` (single isomer, unassigned; (-)) [epinephrine, (−)-3,4-Dihydroxy-α-[(methylamino)methyl]benzyl alcohol], the “equilibrium constant (K) between epinephrine and SBE-CD” value reads like this: (pH 3.5, room temperature) 488 M⁻¹; (pH 5.5) 111 M⁻¹.

Source of the values: patent US20190240337A1, “EPINEPHRINE FORMULATIONS FOR MEDICINAL PRODUCTS” (priority 2013, published 2019).
